Measurements published in publication PMC11233931, “Remodeling tumor‐associated macrophage for anti‐cancer effects by rational design of irreversible inhibition of mitogen‐activated protein kinase‐activated protein kinase 2” (MedComm, 2024).

Assays:
Assay in all cases: Eurofins kinase selectivity profile against 380 other human recombinant kinases (Table S2)
Format in all cases: biochemical
[1] = target: T1, 380 human recombinant protein kinases (Homo sapiens, UniProt Q05655); details: PKCδ(h), read-out: Inhibition rate
T1 construct: purchased Eurofins (Celle Lévescault)
In short: (§1)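 Profiling against 380 human recombinant kinases carried out by Eurofins at various compound concentrations.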

[2] = target: T2, 380 human recombinant protein kinases (Homo sapiens, UniProt Q9H093); details: NUAK2(h), read-out: Inhibition rate
T2 construct: purchased Eurofins (Celle Lévescault)
T2 sequence (Q9H093 1-628): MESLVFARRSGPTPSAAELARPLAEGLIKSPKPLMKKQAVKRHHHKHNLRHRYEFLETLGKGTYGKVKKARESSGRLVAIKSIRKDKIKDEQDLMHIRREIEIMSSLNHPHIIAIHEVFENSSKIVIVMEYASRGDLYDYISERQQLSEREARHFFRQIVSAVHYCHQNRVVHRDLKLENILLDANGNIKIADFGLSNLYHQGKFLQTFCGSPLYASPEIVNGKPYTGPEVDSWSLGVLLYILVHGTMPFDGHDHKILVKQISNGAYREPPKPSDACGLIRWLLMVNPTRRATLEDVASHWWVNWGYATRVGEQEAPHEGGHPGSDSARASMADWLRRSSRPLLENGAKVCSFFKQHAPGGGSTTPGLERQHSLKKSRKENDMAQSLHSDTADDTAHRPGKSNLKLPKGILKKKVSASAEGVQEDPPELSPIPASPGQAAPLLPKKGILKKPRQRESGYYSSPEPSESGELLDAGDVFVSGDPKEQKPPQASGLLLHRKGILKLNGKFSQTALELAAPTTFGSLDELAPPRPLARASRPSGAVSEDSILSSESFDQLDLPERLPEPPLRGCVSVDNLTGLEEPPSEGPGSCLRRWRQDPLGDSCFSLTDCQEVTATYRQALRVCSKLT
In short: as §1

[3] = target: T3, 380 human recombinant protein kinases (Homo sapiens, UniProt P80192); details: MLK1(h), read-out: Inhibition rate
T3 construct: purchased Eurofins (Celle Lévescault)
In short: as §1

[4] = target: T4, 380 human recombinant protein kinases (Homo sapiens, UniProt Q9H2G2); details: SLK(h), read-out: Inhibition rate (%)
T4 construct: purchased Eurofins (Celle Lévescault)
In short: as §1

[5] = target: T5, 380 human recombinant protein kinases (Homo sapiens, UniProt Q96PN8); details: TSSK3(h), read-out: Inhibition rate (%)
T5 construct: purchased Eurofins (Celle Lévescault)
T5 sequence (Q96PN8 1-268): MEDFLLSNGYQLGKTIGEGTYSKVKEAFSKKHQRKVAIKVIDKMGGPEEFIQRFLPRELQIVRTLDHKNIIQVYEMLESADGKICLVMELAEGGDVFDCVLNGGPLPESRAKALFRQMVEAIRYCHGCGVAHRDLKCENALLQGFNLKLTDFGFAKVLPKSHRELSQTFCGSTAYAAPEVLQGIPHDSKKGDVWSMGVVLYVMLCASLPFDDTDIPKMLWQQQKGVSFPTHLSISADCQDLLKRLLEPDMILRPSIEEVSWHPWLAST
In short: as §1

[6] = target: T6, 380 human recombinant protein kinases (Homo sapiens, UniProt Q9H1R3); details: MYLK2(h), read-out: Inhibition rate
T6 construct: purchased Eurofins (Celle Lévescault)
In short: as §1

[7] = target: T7, 380 human recombinant protein kinases (Homo sapiens, UniProt Q8TDR2); details: CLIK1(h), read-out: Inhibition rate
T7 construct: purchased Eurofins (Celle Lévescault)
In short: as §1

[8] = target: T8, 380 human recombinant protein kinases (Homo sapiens, UniProt Q00537); details: CDK17/cyclinY(h), read-out: Inhibition rate
T8 construct: purchased Eurofins (Celle Lévescault)
In short: as §1

[9] = target: T9, 380 human recombinant protein kinases (Homo sapiens, UniProt P54764); details: EphA4(h), read-out: Inhibition rate
T9 construct: purchased Eurofins (Celle Lévescault)
In short: as §1

[10] = target: T10, 380 human recombinant protein kinases (Homo sapiens, UniProt P41743); details: PKCι(h), read-out: Inhibition rate
T10 construct: purchased Eurofins (Celle Lévescault)
T10 sequence (P41743 1-596): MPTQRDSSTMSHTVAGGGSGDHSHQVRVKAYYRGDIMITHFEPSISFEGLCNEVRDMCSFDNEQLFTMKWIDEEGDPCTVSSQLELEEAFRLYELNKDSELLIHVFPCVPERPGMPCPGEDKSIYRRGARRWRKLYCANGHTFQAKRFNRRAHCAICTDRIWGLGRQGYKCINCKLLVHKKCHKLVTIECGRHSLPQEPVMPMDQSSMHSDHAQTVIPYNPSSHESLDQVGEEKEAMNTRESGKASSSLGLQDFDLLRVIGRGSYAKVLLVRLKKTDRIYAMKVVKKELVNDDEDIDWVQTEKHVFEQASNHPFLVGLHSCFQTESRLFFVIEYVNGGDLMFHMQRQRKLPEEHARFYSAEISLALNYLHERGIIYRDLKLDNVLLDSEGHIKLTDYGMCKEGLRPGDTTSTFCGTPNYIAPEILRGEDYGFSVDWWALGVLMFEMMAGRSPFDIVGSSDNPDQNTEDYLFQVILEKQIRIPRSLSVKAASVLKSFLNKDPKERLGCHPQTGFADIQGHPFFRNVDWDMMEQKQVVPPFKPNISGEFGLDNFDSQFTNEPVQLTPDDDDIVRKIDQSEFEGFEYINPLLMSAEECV
In short: as §1

[11] = target: T11, 380 human recombinant protein kinases (Homo sapiens, UniProt P17948); details: Flt1(h), read-out: Inhibition rate
T11 construct: purchased Eurofins (Celle Lévescault)
In short: as §1

T1 sequence (Q05655 whole entry): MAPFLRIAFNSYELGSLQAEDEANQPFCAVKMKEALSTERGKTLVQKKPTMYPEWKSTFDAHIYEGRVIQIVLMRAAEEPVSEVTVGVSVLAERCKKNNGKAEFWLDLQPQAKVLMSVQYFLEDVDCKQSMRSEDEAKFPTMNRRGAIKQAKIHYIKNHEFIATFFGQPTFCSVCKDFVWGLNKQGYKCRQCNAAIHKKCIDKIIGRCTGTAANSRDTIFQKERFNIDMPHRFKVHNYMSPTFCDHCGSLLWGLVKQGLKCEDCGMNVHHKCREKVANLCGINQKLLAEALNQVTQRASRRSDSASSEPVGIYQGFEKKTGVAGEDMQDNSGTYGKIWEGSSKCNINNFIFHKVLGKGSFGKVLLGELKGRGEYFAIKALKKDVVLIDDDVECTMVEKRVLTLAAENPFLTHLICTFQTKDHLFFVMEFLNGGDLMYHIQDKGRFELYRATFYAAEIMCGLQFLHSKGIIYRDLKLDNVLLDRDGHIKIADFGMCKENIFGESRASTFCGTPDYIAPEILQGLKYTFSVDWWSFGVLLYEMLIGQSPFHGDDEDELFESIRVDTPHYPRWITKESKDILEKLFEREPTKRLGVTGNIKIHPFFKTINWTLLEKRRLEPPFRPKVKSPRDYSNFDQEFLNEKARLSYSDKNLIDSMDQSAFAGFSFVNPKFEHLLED
T8 sequence (Q00537 whole entry): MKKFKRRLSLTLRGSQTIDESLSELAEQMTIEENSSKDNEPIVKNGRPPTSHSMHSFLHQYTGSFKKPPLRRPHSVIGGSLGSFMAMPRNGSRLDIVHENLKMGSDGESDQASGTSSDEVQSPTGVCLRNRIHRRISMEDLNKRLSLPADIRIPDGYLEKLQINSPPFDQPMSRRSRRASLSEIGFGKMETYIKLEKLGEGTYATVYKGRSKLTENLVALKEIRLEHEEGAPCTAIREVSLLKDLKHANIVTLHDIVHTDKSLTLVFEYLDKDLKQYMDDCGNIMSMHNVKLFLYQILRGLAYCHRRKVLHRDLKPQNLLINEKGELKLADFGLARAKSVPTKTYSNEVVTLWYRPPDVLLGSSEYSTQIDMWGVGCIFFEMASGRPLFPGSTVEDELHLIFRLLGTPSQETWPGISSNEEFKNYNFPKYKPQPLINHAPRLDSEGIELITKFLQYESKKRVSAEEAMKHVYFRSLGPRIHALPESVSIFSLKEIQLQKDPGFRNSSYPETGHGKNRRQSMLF
T4 sequence (Q9H2G2 whole entry): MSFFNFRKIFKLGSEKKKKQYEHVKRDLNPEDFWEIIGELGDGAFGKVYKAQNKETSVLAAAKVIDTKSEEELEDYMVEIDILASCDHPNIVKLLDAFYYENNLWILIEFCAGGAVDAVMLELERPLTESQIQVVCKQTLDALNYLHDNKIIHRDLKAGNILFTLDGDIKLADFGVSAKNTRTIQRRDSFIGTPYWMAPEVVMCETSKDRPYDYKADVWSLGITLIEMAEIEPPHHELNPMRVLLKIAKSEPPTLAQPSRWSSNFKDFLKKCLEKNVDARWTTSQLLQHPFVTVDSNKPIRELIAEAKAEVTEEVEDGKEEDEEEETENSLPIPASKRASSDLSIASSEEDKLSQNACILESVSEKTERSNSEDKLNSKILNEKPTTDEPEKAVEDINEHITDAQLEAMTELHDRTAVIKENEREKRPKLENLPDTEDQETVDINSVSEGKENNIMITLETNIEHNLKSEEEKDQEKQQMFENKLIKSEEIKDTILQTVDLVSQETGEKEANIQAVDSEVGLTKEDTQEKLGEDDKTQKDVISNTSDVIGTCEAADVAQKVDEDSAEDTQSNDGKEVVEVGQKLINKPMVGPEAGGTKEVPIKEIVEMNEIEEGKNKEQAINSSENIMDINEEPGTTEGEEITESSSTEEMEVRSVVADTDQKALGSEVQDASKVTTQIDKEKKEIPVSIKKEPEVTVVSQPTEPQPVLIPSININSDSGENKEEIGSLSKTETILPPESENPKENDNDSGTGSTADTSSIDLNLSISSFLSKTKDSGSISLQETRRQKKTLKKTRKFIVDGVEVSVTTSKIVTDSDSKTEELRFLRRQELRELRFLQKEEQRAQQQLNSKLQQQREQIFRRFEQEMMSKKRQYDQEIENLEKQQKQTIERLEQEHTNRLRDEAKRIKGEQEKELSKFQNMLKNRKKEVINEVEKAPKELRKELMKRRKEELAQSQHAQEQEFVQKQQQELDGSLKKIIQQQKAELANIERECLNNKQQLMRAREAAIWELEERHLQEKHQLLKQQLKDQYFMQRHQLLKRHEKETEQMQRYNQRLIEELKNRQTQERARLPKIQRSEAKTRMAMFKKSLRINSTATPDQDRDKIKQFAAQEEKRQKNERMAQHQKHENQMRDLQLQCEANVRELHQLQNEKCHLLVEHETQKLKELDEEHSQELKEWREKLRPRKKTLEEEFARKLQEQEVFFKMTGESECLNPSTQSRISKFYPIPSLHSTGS
T9 sequence (P54764 20-986): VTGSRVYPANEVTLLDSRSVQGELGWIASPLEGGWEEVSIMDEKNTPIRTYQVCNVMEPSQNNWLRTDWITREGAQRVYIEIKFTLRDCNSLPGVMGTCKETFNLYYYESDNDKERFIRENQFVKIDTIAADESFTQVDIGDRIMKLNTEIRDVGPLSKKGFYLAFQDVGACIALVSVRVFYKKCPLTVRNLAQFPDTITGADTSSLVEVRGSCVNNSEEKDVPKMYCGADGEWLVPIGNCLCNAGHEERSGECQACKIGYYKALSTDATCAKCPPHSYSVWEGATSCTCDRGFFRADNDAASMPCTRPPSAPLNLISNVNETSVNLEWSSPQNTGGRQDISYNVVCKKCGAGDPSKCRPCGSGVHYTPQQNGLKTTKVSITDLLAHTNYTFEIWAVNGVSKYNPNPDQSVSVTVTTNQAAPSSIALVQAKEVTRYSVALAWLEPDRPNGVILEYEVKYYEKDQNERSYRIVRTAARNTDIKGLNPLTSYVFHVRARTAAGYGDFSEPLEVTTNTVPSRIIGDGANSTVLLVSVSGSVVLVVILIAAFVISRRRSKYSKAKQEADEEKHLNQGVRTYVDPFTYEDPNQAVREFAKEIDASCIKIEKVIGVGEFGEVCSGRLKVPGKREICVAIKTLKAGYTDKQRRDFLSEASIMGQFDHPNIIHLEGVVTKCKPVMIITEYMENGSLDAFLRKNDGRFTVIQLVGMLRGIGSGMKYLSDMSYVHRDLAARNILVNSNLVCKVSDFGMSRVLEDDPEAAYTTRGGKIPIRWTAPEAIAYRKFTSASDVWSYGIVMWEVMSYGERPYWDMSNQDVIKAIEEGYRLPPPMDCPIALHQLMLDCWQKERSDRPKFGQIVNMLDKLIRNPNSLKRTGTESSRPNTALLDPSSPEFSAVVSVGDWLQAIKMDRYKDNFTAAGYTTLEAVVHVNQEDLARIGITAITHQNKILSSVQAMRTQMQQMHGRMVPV
T3 sequence (P80192 whole entry): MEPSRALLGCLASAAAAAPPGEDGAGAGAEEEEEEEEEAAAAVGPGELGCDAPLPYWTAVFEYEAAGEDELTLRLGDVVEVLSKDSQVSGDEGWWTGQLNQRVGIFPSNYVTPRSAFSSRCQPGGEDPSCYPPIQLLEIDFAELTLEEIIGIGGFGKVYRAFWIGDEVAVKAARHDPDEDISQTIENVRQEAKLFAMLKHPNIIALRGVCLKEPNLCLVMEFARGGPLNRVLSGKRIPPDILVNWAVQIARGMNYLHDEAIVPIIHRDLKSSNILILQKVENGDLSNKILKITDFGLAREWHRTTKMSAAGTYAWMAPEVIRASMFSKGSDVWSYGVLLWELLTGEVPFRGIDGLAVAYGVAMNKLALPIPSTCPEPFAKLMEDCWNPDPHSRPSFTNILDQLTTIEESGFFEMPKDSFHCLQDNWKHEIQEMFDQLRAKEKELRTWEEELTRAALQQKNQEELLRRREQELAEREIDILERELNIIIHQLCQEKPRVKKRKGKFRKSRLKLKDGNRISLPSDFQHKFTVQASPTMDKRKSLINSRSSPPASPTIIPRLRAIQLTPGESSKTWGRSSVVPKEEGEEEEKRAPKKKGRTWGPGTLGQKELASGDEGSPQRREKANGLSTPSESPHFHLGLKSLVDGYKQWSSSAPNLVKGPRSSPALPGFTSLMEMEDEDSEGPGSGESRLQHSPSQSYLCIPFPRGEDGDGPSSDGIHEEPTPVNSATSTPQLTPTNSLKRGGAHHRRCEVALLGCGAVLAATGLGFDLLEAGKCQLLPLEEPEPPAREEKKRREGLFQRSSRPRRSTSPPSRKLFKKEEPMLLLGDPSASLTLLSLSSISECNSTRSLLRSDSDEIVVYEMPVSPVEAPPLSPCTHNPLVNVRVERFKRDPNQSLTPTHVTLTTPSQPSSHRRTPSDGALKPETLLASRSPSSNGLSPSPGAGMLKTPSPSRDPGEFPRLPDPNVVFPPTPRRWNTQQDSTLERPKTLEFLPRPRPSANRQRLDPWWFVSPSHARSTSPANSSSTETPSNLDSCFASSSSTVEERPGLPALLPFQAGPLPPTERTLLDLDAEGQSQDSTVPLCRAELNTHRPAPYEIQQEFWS
T7 sequence (Q8TDR2 whole entry): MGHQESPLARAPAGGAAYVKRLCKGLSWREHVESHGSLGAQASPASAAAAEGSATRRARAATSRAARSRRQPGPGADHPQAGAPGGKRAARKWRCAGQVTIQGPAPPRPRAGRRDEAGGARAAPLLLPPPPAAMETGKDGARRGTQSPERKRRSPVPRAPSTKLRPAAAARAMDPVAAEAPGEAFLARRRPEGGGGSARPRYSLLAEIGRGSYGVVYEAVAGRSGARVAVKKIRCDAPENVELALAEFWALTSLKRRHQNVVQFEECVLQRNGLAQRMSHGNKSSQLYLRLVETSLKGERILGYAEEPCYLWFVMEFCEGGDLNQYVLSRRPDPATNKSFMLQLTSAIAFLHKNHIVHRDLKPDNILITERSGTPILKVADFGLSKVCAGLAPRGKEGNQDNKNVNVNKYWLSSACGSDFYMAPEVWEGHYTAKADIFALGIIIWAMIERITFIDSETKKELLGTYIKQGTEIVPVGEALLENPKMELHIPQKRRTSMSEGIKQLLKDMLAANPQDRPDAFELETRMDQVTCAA

Structure (SMILES): C=CC(=O)Nc1cc(-c2cc(-c3cc4c([nH]3)CCNC4=O)ccn2)ccc1OC(F)(F)F [compound 11]
- inhibition at 0.01 µM ([1]; 10 nM): 1%
- inhibition at 0.1 µM ([1]; 100 nM): 14%
- inhibition at 1 µM ([1]; 1000 nM): 9%
- inhibition at 0.01 µM ([2]; 10 nM): -16%
- inhibition at 0.1 µM ([2]; 100 nM): -8%
- inhibition at 1 µM ([2]; 1000 nM): 8%
- inhibition at 0.01 µM ([3]; 10 nM): -3%
- inhibition at 0.1 µM ([3]; 100 nM): 0%
- inhibition at 1 µM ([3]; 1000 nM): 10%
- inhibition at 0.01 µM ([4]; 10 nM): 1%
- inhibition at 0.1 µM ([4]; 100 nM): 4%
- inhibition at 1 µM ([4]; 1000 nM): 4%
- inhibition at 0.01 µM ([5]; 10 nM): 0%
- inhibition at 0.1 µM ([5]; 100 nM): 5%
- inhibition at 1 µM ([5]; 1000 nM): -2%
- inhibition at 0.01 µM ([6]; 10 nM): -2%
- inhibition at 0.1 µM ([6]; 100 nM): 6%
- inhibition at 1 µM ([6]; 1000 nM): 29%
- inhibition at 0.01 µM ([7]; 10 nM): 5%
- inhibition at 0.1 µM ([7]; 100 nM): 33%
- inhibition at 1 µM ([7]; 1000 nM): 65%
- inhibition at 0.01 µM ([8]; 10 nM): 13%
- inhibition at 0.1 µM ([8]; 100 nM): 19%
- inhibition at 1 µM ([8]; 1000 nM): 25%
- inhibition at 0.01 µM ([9]; 10 nM): -1%
- inhibition at 0.1 µM ([9]; 100 nM): 3%
- inhibition at 1 µM ([9]; 1000 nM): -7%
- inhibition at 0.01 µM ([10]; 10 nM): 0%
- inhibition at 0.1 µM ([10]; 100 nM): 5%
- inhibition at 1 µM ([10]; 1000 nM): 8%
- inhibition at 0.01 µM ([11]; 10 nM): -24%
- inhibition at 0.1 µM ([11]; 100 nM): -17%
- inhibition at 1 µM ([11]; 1000 nM): -11%
